Reference: US9566281B2 (Westfaelische Wilhelms-Universitaet, priority 2012, dated 2017)
Where “and” joins values, the source holds several entries; their conditions need not be identical. Identical values can stand only once. Like-named read-outs stand apart in the source and are kept apart here.

Experiments:
[1] = patients taking oseltamivir; cited from earlier work
influenza A virus = experiment: Synergism of MEK inhibitor with Oseltamivir-carboxylate on A549 cells (combination index, CompuSyn); type: cell-based
A/Anhui/1/2013 (H7N9) = experiment: microbe, parasite or virus in culture; type: cell-based, influenza A virus
FPV = type: cell-based
panH1N1 (RB1) = type: cell-based, influenza A virus
[2] = tested on: A/Mallard/Bavaria/01/2006 (MB1, H5N1); type: cell-based, influenza A virus; details: MDCK II, MOI 0.001, 24 h treatment, FIG. 6/7
colon carcinoma = details: oral administration, mouse model; cited from earlier work
[3] = with Oseltamivir-carboxylate, ratio 1:1, A549
[4] = with Oseltamivir-carboxylate, ratio 1:10, A549

Compound: oseltamivir
- patients experiencing nausea and vomiting [1]: 10-15%

Compound: CCCS(=O)(=O)Nc1ccc(F)c(C(=O)c2c[nH]c3ncc(-c4ccc(Cl)cc4)cc23)c1F [PLX-4032]
- CI value at ED75 (influenza A virus; [3]): 0.3472
- CI value at ED90 (influenza A virus; [3]): 0.4332
- CI value at ED95 (influenza A virus; [3]): 0.5036
- CI value at ED75 (influenza A virus; [4]): 0.2305
- CI value at ED90 (influenza A virus; [4]): 0.2367
- CI value at ED95 (influenza A virus; [4]): 0.2413
- antiviral potency (A/Anhui/1/2013 (H7N9); A549, H7N9, FIGS. 13A and B): highly potent
- EC50 (A/Anhui/1/2013 (H7N9); Influenza A virus, H7N9, A549, 24 h): 12 µM

Compound: O=C(NOC[C@H](O)CO)c1ccc(F)c(F)c1Nc1ccc(I)cc1F [PD-0325901]
- antiviral potency (FPV): potent
- antiviral potency (panH1N1 (RB1)): potent
- antiviral potency in cell culture [2]: highly potent

Compound: CC(=O)Nc1cccc(-n2c(=O)n(C3CC3)c(=O)c3c(Nc4ccc(I)cc4F)n(C)c(=O)c(C)c32)c1 [GSK-1120212]
- CI value at ED75 (influenza A virus): 0.4758
- CI value at ED90 (influenza A virus): 0.4648
- CI value at ED95 (influenza A virus): 0.4576

Compound: Cn1cnc2c(F)c(Nc3ccc(Br)cc3Cl)c(C(=O)NOCCO)cc21 [AZD-6244]
- CI value at ED75 (influenza A virus): 0.2086 and 0.1616
- CI value at ED90 (influenza A virus): 0.2962 and 0.2330
- CI value at ED95 (influenza A virus): 0.3760 and 0.2993

Compound: O=C(NOCC1CC1)c1ccc(F)c(F)c1Nc1ccc(I)cc1Cl [PD184352, 2-(2-chloro-4-iodo-phenylamino)-N-cyclopropylmethoxy-3,4-difluoro-benzamide]
- growth of colon carcinoma (colon carcinoma): efficiently inhibit

Compound: O=C(NOCC1CC1)c1ccc(F)c(F)c1Nc1ccc(I)cc1Cl [CI-1040]
- CI value at ED75 (influenza A virus; [3]): 0.4010
- CI value at ED90 (influenza A virus; [3]): 0.3987
- CI value at ED95 (influenza A virus; [3]): 0.4412
- antiviral potency (FPV): potent
- antiviral potency (panH1N1 (RB1)): potent
- antiviral potency in cell culture [2]: highly potent
